Laboratory results taken from patent US10793521B2, “Crystalline form II of dextral oxiracetam, preparation method therefor and use thereof” (CHONGQING RUNZE PHARMACEUTICAL COMPANY LIMITED, priority 2016, dated 2020).
Entries after “also recorded” stand apart in the source; their conditions may differ.

Columns and labels:
Format in all cases: physicochemical
Solubility in water = assay: Solubility in water
[1] = Accelerated test for crystalline form stability; settings: 40° C.±2° C., relative humidity 75%±5%
Protocol: The accelerated test for crystalline form stability was performed in accordance with the provisions relating to the accelerated test of active pharmaceutical ingredients under “Guidelines for the Stability Test of Active Ingredient Pharmaceutical Ingredients and Pharmaceutical Preparations” of Pharmacopoeia 2010 Appendix XIXC. The crystalline form II of dextral oxiracetam was placed in a beaker and the test was carried out in a constant temperature and humidity chamber at a temperature of 40° C.±2° C. and a relative humidity of 75%±5%.

[2] = Dynamic vapor sorption (DVS) test with powder X-ray diffraction characterization
Protocol: The test parameters were given as follows: weighing: Ultra Digital Microbalance SMS Ultra Balance™; flow rate: N2, 200 sccm, System Control Software: DVS-Intrinsic control software ver. 1.0.3.1, Data Analysis Software: Isotherm (ISO) analysis suite. 22.4 mg of sample of crystalline form II of dextral oxiracetam was weighed for the test, dried at RH=0%, the mass was balanced to ensure removal of moisture adsorbed on the surface, then placed on metal sample tray, and dried at 0% RH for 2 h. The test was performed at a constant temperature of 25° C., and the relative humidity (RH %) was controlled to vary cyclically from 0% to 90% to 0% RH with a 10% gradient. The variation of the sample weight with humidity was measured, which was combined with powder X-ray diffraction characterization to observe the effect of humidity on crystalline form transformation of the sample.

- solubility (Solubility in water): ≥ 100 mg/mL
- change in crystalline form ([1]; after 2 h): no change
- change in crystalline form ([1]; after 10 days): no change
- change in crystalline form ([1]; after 15 days): no change
- crystal transformation in accelerated stability test ([1]; between 2 h and 15 d): did not undergo crystal transformation
Compound: NC(=O)CN1C[C@H](O)CC1=O [dextral oxiracetam]
- crystalline form of the sample after humidity cycle ([2]; 25° C., relative humidity cycled 0% to 90% to 0% RH with a 10% gradient): still the crystalline form II of dextral oxiracetam
- crystal transformation / stability to humidity ([2]; room temperature, relative humidity of 0-95%): do not undergo crystal transformation; also recorded: no crystal transformation occurs
